These results are taken from ChEMBL document CHEMBL1201862, “PubChem BioAssay data set” (2004).

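Step 1: Grow cells in 96-well plates. Step 2: Expose to compound for 48 hours at 5 concentrations. Step 3: Interpolate endpoints linearly; if unreached, use highest concentration. GI50: concentration for 50% inhibition of growth.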 Calls of active or inactive are those of the source. Rule as the data show it: active = GI50 up to about 1.1 µM and inactive = higher.

Some test systems named below: NCI/ADR-RES; PC-3; BT-549; HL-60; MOLT-4; SK-MEL-2; A498; SNB-19; SNB-75; RXF 393; ACHN; CCRF-CEM; MDA-MB-435; M14; MDA-MB-231; SR; UACC-257; NCI-H460; OVCAR-8.
What all share (experiment): inhibition of tumour cell growth, NCI panel, 48 h

In the case of `[N-]=[N+]=NC1=C(c2ccccn2)C(=O)c2cccc3cccc1c23`, the GI50 is 50.8 µM (inactive) in the experiment on NCI/ADR-RES; 39.3 µM (inactive) in the experiment on PC-3; 27.3 µM (inactive) with BT-549; 20.7 µM (inactive) in the experiment on HL-60; 1.77 µM (inactive) in the experiment on MOLT-4; 43.5 µM (inactive) with SK-MEL-2. The GI50 with A498 was 5.48 µM (inactive); in the experiment with SNB-19, 28.6 µM (inactive); in the experiment with SNB-75, 29 µM (inactive); in the experiment on RXF 393, 37.2 µM (inactive); in the experiment on ACHN, 15.7 µM (inactive); with CCRF-CEM, 7.03 µM (inactive). The GI50 with MDA-MB-435 is 36.5 µM (inactive); with M14 it was 23.9 µM (inactive); with MDA-MB-231, 69.3 µM (inactive); with SR, 27.7 µM (inactive); in the experiment on UACC-257, 32.8 µM (inactive); with NCI-H460, 12 µM (inactive).

As to `CC(C)COC(=O)OC(=O)c1ccc(N(C)Cc2cnc3nc(N)nc(N)c3n2)cc1`, the GI50 is > 36.3 µM (inactive) in the experiment on NCI/ADR-RES; 2.47 µM (inactive) with PC-3; 20.9 µM (inactive) in the experiment with BT-549; 8.34 µM (inactive) in the experiment on HL-60; 4.31 µM (inactive) with MOLT-4; > 100 µM (inactive) in the experiment on SK-MEL-2. The GI50 with A498 is > 40.4 µM (inactive); with SNB-19, 16.1 µM (inactive); in the experiment on SNB-75 it was > 38.2 µM (inactive); in the experiment on RXF 393 it was 16.1 µM (inactive); in the experiment with ACHN, 11.4 µM (inactive); in the experiment on CCRF-CEM it was 3.69 µM (inactive). The GI50 with MDA-MB-435 is > 100 µM (inactive); with M14, 9.44 µM (inactive); in the experiment on MDA-MB-231, > 100 µM (inactive); with SR, 0.521 µM (active); in the experiment on OVCAR-8 it was 6.12 µM (inactive); in the experiment with UACC-257 it was 47.3 µM (inactive). Also, the GI50 in the experiment with NCI-H460 is 5.64 µM (inactive).

`O=C(OCc1ccccc1)N1c2cc([N+](=O)[O-])ccc2C(=O)N2CCC[C@H]2C1O` (some centres not stated): the GI50 in the experiment with NCI/ADR-RES, with PC-3, in the experiment on BT-549, with HL-60, in the experiment with MOLT-4 and with SK-MEL-2 was > 100 µM (inactive) in each case. For the same compound, the GI50 with A498, in the experiment with SNB-19, in the experiment on SNB-75, with RXF 393, in the experiment with ACHN and with CCRF-CEM was > 100 µM (inactive) each time. The GI50 with MDA-MB-435, in the experiment with M14, in the experiment with MDA-MB-231, in the experiment with SR, in the experiment with OVCAR-8 and with UACC-257 was > 100 µM (inactive) throughout. In addition, the GI50 in the experiment on NCI-H460 was > 100 µM (inactive).

Take `COC(=O)C1=C(O)C(C(=O)OC)[C@]2(O)[C@H](C(=O)OC)[C@H]1C[C@@H](c1ccccc1OC)[C@H]2C(=O)OC` (some centres not stated): the GI50 is 2.61 µM (inactive) with NCI/ADR-RES; 6.03 µM (inactive) in the experiment with PC-3; 3.15 µM (inactive) in the experiment with BT-549; 3.29 µM (inactive) in the experiment on HL-60; 3.59 µM (inactive) in the experiment on MOLT-4; 6.03 µM (inactive) with SK-MEL-2. Also, the GI50 is 3.53 µM (inactive) with A498; 5.24 µM (inactive) with SNB-19; 10.7 µM (inactive) in the experiment on SNB-75; 5.06 µM (inactive) in the experiment on RXF 393; 6.25 µM (inactive) in the experiment on ACHN; 3.56 µM (inactive) in the experiment on CCRF-CEM. Further, the GI50 in the experiment on MDA-MB-435 is 2.71 µM (inactive); in the experiment on M14, 2.88 µM (inactive); in the experiment with MDA-MB-231, 9.55 µM (inactive); in the experiment with SR, 1.93 µM (inactive); in the experiment on OVCAR-8, 2.86 µM (inactive); in the experiment on UACC-257, 9.64 µM (inactive). Also, the GI50 in the experiment on NCI-H460 is 4.51 µM (inactive).

As to `C=C(CCOC)CCC1CCCCC(=C)C1=O` (configuration not stated), the GI50 in the experiment with NCI/ADR-RES, with PC-3, with BT-549, with HL-60, in the experiment on MOLT-4 and in the experiment with SK-MEL-2 was > 100 µM (inactive) each time. Besides, the GI50 with A498, in the experiment on SNB-19, in the experiment with SNB-75, in the experiment on RXF 393, in the experiment on ACHN and in the experiment on CCRF-CEM was > 100 µM (inactive) in each case. In addition, the GI50 in the experiment with MDA-MB-435, with M14, in the experiment with MDA-MB-231, in the experiment with SR, with OVCAR-8 and in the experiment on NCI-H460 was > 100 µM (inactive) throughout.

For the compound `NC(=S)Nc1ccc2c(c1)oc1ccccc12`, the GI50 was > 100 µM (inactive) in the experiment on NCI/ADR-RES; > 100 µM (inactive) with PC-3; > 100 µM (inactive) in the experiment on BT-549; 7.82 µM (inactive) in the experiment on HL-60; 7.1 µM (inactive) in the experiment with MOLT-4; > 100 µM (inactive) with SK-MEL-2. For the same compound, the GI50 in the experiment with A498 is > 100 µM (inactive); with SNB-19, > 100 µM (inactive); with SNB-75 it was > 100 µM (inactive); in the experiment with RXF 393, > 100 µM (inactive); in the experiment with ACHN, > 100 µM (inactive); with CCRF-CEM it was 9.91 µM (inactive). The GI50 in the experiment on MDA-MB-435, with M14, in the experiment on MDA-MB-231, in the experiment on SR, in the experiment on OVCAR-8 and in the experiment with UACC-257 was > 100 µM (inactive) in each case. In the experiment on NCI-H460, the GI50 was > 100 µM (inactive).

`CCOC(=O)/C=C(/C=C\COC1CCCCO1)c1ccccc1` (configuration not stated): the GI50 in the experiment with NCI/ADR-RES was 24.5 µM (inactive); with PC-3, 35.6 µM (inactive); with BT-549, 41.1 µM (inactive); with HL-60 it was 18.3 µM (inactive); with MOLT-4, 20.4 µM (inactive); with SK-MEL-2, 55.2 µM (inactive). Also, the GI50 was > 100 µM (inactive) in the experiment with A498; 36.5 µM (inactive) in the experiment on SNB-19; 23.4 µM (inactive) in the experiment on SNB-75; 16.1 µM (inactive) in the experiment with RXF 393; 48 µM (inactive) in the experiment with ACHN; 25.6 µM (inactive) in the experiment with CCRF-CEM. In addition, the GI50 with MDA-MB-435 is 25.2 µM (inactive); with M14 it was 38.6 µM (inactive); in the experiment with MDA-MB-231 it was 42.4 µM (inactive); in the experiment with SR it was 18.8 µM (inactive); in the experiment with OVCAR-8, 23.1 µM (inactive); with UACC-257, 56.1 µM (inactive). The GI50 in the experiment on NCI-H460 was 48.1 µM (inactive).

Consider `CN1CSC(=S)N(c2c3ccccc3nc3ccc(Br)cc23)C1`, for which the GI50 was 7.67 µM (inactive) with NCI/ADR-RES; 8.77 µM (inactive) in the experiment on PC-3; 15.4 µM (inactive) with BT-549; 11.1 µM (inactive) in the experiment with HL-60; 0.783 µM (active) in the experiment on MOLT-4; 13 µM (inactive) in the experiment on SK-MEL-2. Besides, the GI50 in the experiment on A498 was 13.6 µM (inactive); in the experiment with SNB-19 it was 12.5 µM (inactive); with SNB-75, 8.99 µM (inactive); with RXF 393, 11.9 µM (inactive); in the experiment with ACHN it was 6.59 µM (inactive); with CCRF-CEM, 4.08 µM (inactive). Further, the GI50 with MDA-MB-435 is 8.67 µM (inactive); with M14 it was 13.1 µM (inactive); with MDA-MB-231 it was 8.45 µM (inactive); in the experiment on SR it was 0.796 µM (active); in the experiment on OVCAR-8, 7.93 µM (inactive); in the experiment on UACC-257 it was 12.1 µM (inactive). For the same compound, the GI50 in the experiment with NCI-H460 is 3.83 µM (inactive).

Take `COc1ccc(CC2c3cc(OC)c(OC)c(OC)c3CC[N+]2(C)C)cc1Oc1ccc(CC2c3cc4c(c(OC)c3CCN2C)OCO4)cc1` (configuration not stated): the GI50 was > 100 µM (inactive) in the experiment on NCI/ADR-RES; > 100 µM (inactive) in the experiment with PC-3; > 100 µM (inactive) in the experiment with BT-549; 35.5 µM (inactive) with HL-60; > 100 µM (inactive) in the experiment with MOLT-4; > 100 µM (inactive) in the experiment on SK-MEL-2. Also, the GI50 in the experiment on A498, with SNB-19, in the experiment on SNB-75, with RXF 393, with ACHN and with MDA-MB-435 was > 100 µM (inactive) in each case. Besides, the GI50 in the experiment on M14 is > 100 µM (inactive); with MDA-MB-231 it was > 100 µM (inactive); in the experiment with SR it was 52.1 µM (inactive); in the experiment with OVCAR-8 it was > 100 µM (inactive); in the experiment on UACC-257, > 100 µM (inactive); with NCI-H460 it was 92 µM (inactive).

In the case of `CC1OC(=O)C(C(C)C)NC(=O)C(C(C)C)OC(=O)C(C(C)C)NC(=O)C(C)OC(=O)C(C(C)C)NC(=O)C(C(C)C)OC(=O)C(C(C)C)NC(=O)C(C)OC(=O)C(C(C)C)NC(=O)C(C(C)C)OC(=O)C(C(C)C)NC1=O` (configuration not stated), the GI50 is 0.00728 µM (active) in the experiment with NCI/ADR-RES; < 0.0001 µM (active) in the experiment with PC-3; < 0.0001 µM (active) with BT-549; 0.00275 µM (active) in the experiment with HL-60; 0.0025 µM (active) in the experiment with MOLT-4; 0.00288 µM (active) in the experiment with SK-MEL-2. Moreover, the GI50 in the experiment with A498 was 0.0025 µM (active); in the experiment with SNB-19, 0.00349 µM (active); in the experiment on SNB-75, 0.00301 µM (active); in the experiment on RXF 393, 0.00324 µM (active); with ACHN it was < 0.0001 µM (active); in the experiment on CCRF-CEM it was 0.0032 µM (active). Moreover, the GI50 is < 0.0001 µM (active) in the experiment with MDA-MB-435; < 0.0001 µM (active) in the experiment with M14; < 0.0001 µM (active) in the experiment on MDA-MB-231; < 0.0001 µM (active) in the experiment with SR; 0.0025 µM (active) in the experiment with OVCAR-8; 0.0025 µM (active) with UACC-257. The GI50 in the experiment with NCI-H460 was 0.00279 µM (active).
